From patent US4690949A, “Therapeutic drug for dementia” (priority 1985, dated 1987)
Entries after “also recorded” stand apart in the source; their conditions may differ.

Legend:
[1] = test system: patients with dementia; test: Side effects in clinical study; format: in vivo
Protocol: (§1) Administration schedule of L-Threo-DOPS and schedule of clinical evaluation are as follows: [drawing 3]
(§2) Threo-DOPS were administered as follows; immediately after meals at 8:00, 12:00 and 17:00. Various psychological tests were performed at 10:00. The evaluations were performed on the day before and after administration of Threo-DOPS.

[2] = Acute toxicity LD50 in mice; settings: mouse, in vivo
[3] = test system: aromatic L-amino acid decarboxylase; settings: cited from earlier work
[4] = test system: decarboxylase; settings: compared with L-DOPA; cited from earlier work
[5] = test system: patients with dementia; test: Overall clinical evaluation of effectiveness in dementia; format: in vivo
Description: (§3) We have used following various tests: WAIS, Hasegawa's scale for intelligence, Osaka University tests for activity of daily life as well as mental functions, and records of psychological states. Furthermore, free association of letters and categories, paired memory test, Bourdon's test could safely be used to evaluate intelligence of demented patients, even with handicaps in hands or legs. We have done each test 4 times per patient at each point to evaluate the patient's mental state and thus this made us possible to get satisfactory statistical analysis.
Dementia could be classified into various clinical types according to the ethiology; such as Alzheimer's disease (AZ), senile dementia of Alzheimer type (SDAT), dementia due to the cerebral vascular diseases. We included these various types of dementia in this study.
as §1, §2
Evaluations were made as described below or by the methods used commonly.

[6] = test system: parkinsonian patients; test: Clinical studies on parkinsonian patients; format: in vivo
[7] = test system: patients with dementia; test: Bourdon's test (Bourdon's delection test); format: in vivo; set-up: key to Bourdon's test (change after treatment): improved; .dwnarw.: aggravated; →: unchanged
Description: as §3, §1, §2
3. Bourdon's delection test:
Matsumoto K and Samezima K: Introduction to Clinical Psychology Tests, Igaku Shuppan Sha (Tokyo), 1977, pp. 83-87
In this test, the original method was modified by enlarging the chart to make it easier for patients to see and conducting 4 test runs starting at different lines to investigate how far the task could be done in 30 seconds.

[8] = test system: patients with dementia; test: Digit symbol test (modified WAIS); format: in vivo
Description: as §3, §1, §2
The original method of WAIS was partially modified. The test was repeated 4 times and counted time-in seconds which was required to finish one line or checked how far the subject could go along one line in 30 seconds.

[9] = test system: patients with dementia; test: N test (N mental function test); format: in vivo; set-up: key to N test (change after treatment): improved; .dwnarw.: aggravated; →: unchanged
Description: as §3, §1, §2
Inoue, O.: Medical Journal of the Osaka University 26, 375-394 (1974)

[10] = test system: patients with dementia; test: P300 auditory evoked brain potential; format: in vivo; set-up: key: +: appeared; -: disappeared
Protocol: as §1, §2
When two kinds of auditory stimuli are given randomly, a positive brain potential (P300) appears with a latency of about 300 msec in normal subjects and this response has been considered to reflect gnostic function. [Sutton, S. et al.: Science 150, 1187-1188 (1965)].
Using the method of Goodin, D. S. et al., the present inventors asked the subject to hear sounds of 1000 Hz and also 2000 Hz randomly given at intervals of about 1 second and to count the sounds of 2000 Hz which appeared 15% of the total number of sounds which were 400. The evoked potentials were averaged and totalled for each 1000 Hz and 2000 Hz stimulations and the latency and the amplitude of P300 were measured.

[11] = test system: patients with dementia; test: Related words paired memory test; format: in vivo; set-up: key to Related words paired memory test (change after treatment): improved; .dwnarw.: aggravated; →: unchanged
Description: as §3, §1, §2
This retention test using 10 pairs of related words was conducted in 4 trials and the results were compared before and after the treatment.

[12] = test system: patients with dementia; test: Free association (letters and categories); format: in vivo; set-up: key to Free association, Letter / Free association, Category: improved; .dwnarw.: aggravated; →: unchanged
Description: as §3, §1
Threo-DOPS were administered as follows; immediately after meals at 8:00, 12:00 and 17:00. Various psychological tests were performed at 10:00. The evaluations were performed on the day before and after administration of Threo-DOPS. […]
In this test, the subject was asked to say what would occur in mind by free association in response to the 4 letters of " " (a), " " (ka), " " (sa) and " " (ha) and the four categories of "fruits" or "vegetables", "flowers or trees", "animals" and "countries of the world" within 90 seconds and the number of words every 30 seconds was counted.

[13] = Clinical comparison of L-isomer and DL-form activity; format: in vivo
[14] = test system: patients with dementia; test: Hasegawa's scale for intelligence; format: in vivo; set-up: key to Hasegawa (change after treatment): improved; .dwnarw.: aggravated; →: unchanged; settings: for Hasegawa (change after treatment): 10 percent change from pretreatment baseline score
Description: as §3, §1, §2
An increase or decrease of 10 percent from the pretreatment baseline score was regarded as "improved" or "aggravated".

[15] = Case 1, Alzheimer's disease (case report)
[16] = Case 7, left thalamic hemorrhage (case report)
[17] = Case 9, cerebral infarction (case report)

N[C@H](C(=O)O)[C@H](O)c1ccc(O)c(O)c1 (relative stereo) [DL-Threo-DOPS]
Side effects (clinically) ([1]; human, in vivo): almost no side effect has been observed | LD50 ([2]; ip): ~10000 mg/kg | LD50 ([2]; po): ≥ 10000 mg/kg

N[C@H](C(=O)O)[C@H](O)c1ccc(O)c(O)c1 (relative stereo) [Threo-DOPS, threo-3,4-dihydroxyphenylserine]
Conversion to norepinephrine (NE) ([3]; in the living body): decarboxylated by an action of an aromatic L-amino acid decarboxylase existing in the living body and converted into norepinephrine (NE); also recorded: gradually converted to NE in the living body | Rate of decarboxylation relative to L-DOPA ([3]; previous study of the present applicants): considerably smaller than that of L-DOPA | Side effects ([1]; human, in vivo): without any appreciable side effects | Effectiveness of combined use of DCI [4]: not so effective as that for L-DOPA | Effect on symptoms of dementia ([5]; summary statement): improving effect on some symptoms of dementia | Effectiveness as a NE precursor [6]: effectiveness of Threo-DOPS as a NE precursor

N[C@@H](Cc1ccc(O)c(O)c1)C(=O)O [L-DOPA, reference compound]
Decarboxylation to dopamine ([3]; in the living body): decarboxylated to the corresponding catecholamine, dopamine

N[C@H](C(=O)O)[C@H](O)c1ccc(O)c(O)c1 [L-Threo-DOPS]
Bourdon's test (change after treatment) ([7]; Case 1, AZ): → | Bourdon's test (change after treatment) ([7]; Case 2, AZ): → | Bourdon's test (change after treatment) ([7]; Case 3, CI): → | Bourdon's test, statistics ([7]; Case 4, CI): ** (P<0.02) | Bourdon's test (change after treatment) ([7]; Case 6, AZ/CI, person): → | Bourdon's test (change after treatment) ([7]; Case 9, CI): → | Digit symbol test, statistics ([8]; Case 1, AZ): * (P<0.05) | Digit symbol test [8, 15]: Improvements were found | N test (change after treatment) ([9]; Case 5, CI): → | N test (change after treatment) ([9]; Case 6, AZ/CI, person): → | N mental function test [9, 16]: Improvements were obtained | N mental function test [9, 17]: Improvements were found | P300 ([10]; Case 2, AZ): + | P300 ([10]; Case 3, CI): - | P300 ([10]; Case 4, CI): + | P300 ([10]; Case 5, CI): - | P300 ([10]; Case 6, AZ/CI, person): - | P300 [10, 16]: could not be observed before the treatment, appeared after the treatment | P300 ([10]; Case 9, CI): - | Side effects ([1]; Case 9, cerebral infarction): No remarkable side effects were found | Side effects (clinically) ([1]; human, in vivo): almost no side effect has been observed | Related words paired memory test, statistics ([11]; Case 1, AZ): *** (P<0.01) | Related words paired memory test [11, 15]: Improvements were found | Related words paired memory test, statistics ([11]; Case 2, AZ): *** (P<0.01) | Related words paired memory test (change after treatment) ([11]; Case 4, CI): → | Related words paired memory test (change after treatment) ([11]; Case 5, CI): .uparw. | Related words paired memory test, statistics ([11]; Case 5, CI): * (P<0.05) | Related words paired memory test (change after treatment) ([11]; Case 6, AZ/CI, person): → | Related words paired memory test, statistics ([11]; Case 9, CI): ** (P<0.02) | Related words paired memory test [11, 17]: Improvements were found | Overall evaluation ([5]; Case 1, Alzheimer's disease): moderately improved | Global evaluation ([5]; Case 7, left thalamic hemorrhage): markedly improved | Global evaluation ([5]; Case 9, cerebral infarction): moderately improved | Evaluation parameters showing aggravation ([5]; Cases 1 to 9, Table 1): only a few evaluation parameters showed aggravation | Subjects showing improvements in one or more tests ([5]; Cases 1 to 9, Table 1): all subjects but Case 6 showed improvements in one or more tests | Overall evaluation: efficacy against symptoms of patients with dementia ([5]; as a whole): had efficacy against symptoms of patients with dementia | Free association, Category ([12]; Case 2, AZ): → | Free association, Letter ([12]; Case 2, AZ): → | Free association, Category ([12]; Case 3, CI): → | Free association, Category ([12]; Case 4, CI): → | Free association, Letter ([12]; Case 4, CI): → | Free association, Category ([12]; Case 5, CI): → | Free association, Letter ([12]; Case 5, CI): → | Free association, Category ([12]; Case 6, AZ/CI, person): → | Free association, Letter ([12]; Case 6, AZ/CI, person): → | Free association of things [12, 16]: Improvements were obtained | Free association, Category ([12]; Case 9, CI): → | Free association, Letter ([12]; Case 9, CI): → | Effect of L-isomer at half the amount of the DL-mixture ([13]; administered in half the amount of the DL-mixture): nearly the same effect as the DL-mixture | Activity of L-isomer relative to DL-form ([13]; clinical study): twice as active as the DL-form | Hasegawa (change after treatment) ([14]; Case 3, CI): .dwnarw. | Hasegawa (change after treatment) ([14]; Case 6, AZ/CI, person): → | Hasegawa's scale [14, 16]: Improvements were obtained | Hasegawa's scale [14, 17]: Improvements were found | LD50 ([2]; ip): ~10000 mg/kg | LD50 ([2]; po): ≥ 10000 mg/kg
